Test results from patent US8703950B2, “Low ABUK oxycodone, its salts and methods of making same” (Johnson Matthey Public Limited Co., priority 2010, dated 2014).

What was measured:
[1] = Dry heat stress test (lab drying oven under air at 62° C., 14-hydroxycodeinone monitored by LC/MS); assay type: physicochemical; settings: for growth of 14-hydroxycodeinone, dry heat: dry heat (greater than 60° C.), after 14 days; for ABUK (14-hydroxycodeinone) level, 4 days at 62° C. / ABUK (14-hydroxycodeinone) level, 7 days at 62° C. / ABUK (14-hydroxycodeinone) level, 14 days at 62° C.: dry heat, under air; for growth in the level of 14-hydroxycodeinone, dry heat at 62° C.: under air at 62° C., monitored for 14 days
Experimental: A 0.0225 g (0.597 sample of low ABUK oxycodone HCl (T-zero: 3.9 ppm 14-hydroxycodeinone) was placed in a standard lab drying oven under air at 62° C. and the level of 14-hydroxycodeinone was monitored by LC/MS for 14 days. No growth in the level of 14-hydroxycodeinone was observed.
A 0.0225 g (0.597 sample of low ABUK oxycodone (T zero: 3.3 ppm 14-hydroxycodeinone by LC/MS was placed in a standard lab drying oven under air at 62° C. and the level of 14-hydroxycodeinone was monitored by LC/MS for 14 days. No growth in the level of 14-hydroxycodeinone was observed
1.10 Procedure: • Separately inject the diluent as a blank. • Inject the resolution solution once. • Inject the impurity working standard three times. • Inject each sample solution under the full gradient. • Inject the diluent at the end. • Quantify the level of 14-Hydroxy Codeinone in the sample by comparing to the averaged corresponding peak specific response (SR) of the standard solution. • Report the level of 14-Hydroxy Codeinone found in the sample to the nearest 0.0001%. • Report the peak area of the diols for information only.

[2] = Hot acid stress test (aq. HCl, 65° C., 14-hydroxycodeinone monitored by LC/MS); assay type: physicochemical; settings: for growth in 14-hydroxycodeinone in hot acid: 65° C. aq. hydrochloride acid at pH<1, after 24 hours; for ABUK (14-hydroxycodeinone) level, 2 hours in hot acid / ABUK (14-hydroxycodeinone) level, 5 hours in hot acid / ABUK (14-hydroxycodeinone) level, 24 hours in hot acid: 65° C., aq. HCl; for ABUK (14-hydroxycodeinone) level, 0 hours in hot acid (T-zero): before heating, water + 3N aq. HCl
[3] = mixture of the two diol species in acid, 20 hour period

Row | Compound | ABUK (14-hydroxycodeinone) level, T-zero (dry heat test) [1] [ppm] | growth of 14-hydroxycodeinone, dry heat [1] | ABUK (14-hydroxycodeinone) level, 4 days at 62° C. [1] [ppm] | ABUK (14-hydroxycodeinone) level, 7 days at 62° C. [1] [ppm] | ABUK (14-hydroxycodeinone) level, 14 days at 62° C. [1] [ppm] | growth in the level of 14-hydroxycodeinone, dry heat at 62° C. [1] | growth in 14-hydroxycodeinone in hot acid [2] | ABUK (14-hydroxycodeinone) level, 2 hours in hot acid [2] [ppm] | ABUK (14-hydroxycodeinone) level, 5 hours in hot acid [2] [ppm] | ABUK (14-hydroxycodeinone) level, 24 hours in hot acid [2] [ppm] | ABUK (14-hydroxycodeinone) level, 0 hours in hot acid (T-zero) [2] [ppm] | ABUK (14-hydroxycodeinone) level, 0 hours in hot acid (T-zero) ([2]; listed as low ABUK oxycodone base) [ppm] | degradation on exposure to acid [3]
1 | COc1ccc2c3c1O[C@H]1C(=O)CC[C@@]4(O)[C@@H](C2)N(C)CC[C@]314.Cl [Oxycodone Hydrochloride from Example 11, oxycodone HCl] | 3.9 | no growth | 3.7 | 4.0 | 3.7 | No growth | no or minimal growth | 3.6 | 4.2 | 6.1 | 2.5 | – | –
2 | COc1ccc2c3c1O[C@H]1C(=O)CC[C@@]4(O)[C@@H](C2)N(C)CC[C@]314 [Oxycodone Base from Example 9, oxycodone base] | 3.3 | no growth | 3.4 | 3.3 | 3.6 | No growth | no or minimal growth | 2.5 | 3.3 | 6.4 | 2.5 | 2.7 | –
3 | COc1ccc2c3c1O[C@H]1C(=O)C[C@H](O)[C@@]4(O)[C@@H](C2)N(C)CC[C@]314 (single isomer, unassigned) [peak at RRT 0.91] | – | – | – | – | – | – | – | – | – | – | – | – | degraded little
